Results taken from patent publication US20250295804A1, “PEG BASED ANTI-CD47/ANIT-PD-L1 BISPECIFIC ANTIBODY-DRUG CONJUGATE” (Shenzhen Enduring Biotech, Ltd., priority 2022, published 2025).

How the values were obtained:
BxPC-3 tumor cells = test: FACS selective binding assay, tumor cells; format: cell-based; details: BxPC-3, 30 min at 4° C.
Experimental: (§1) Briefly, freshly prepared red blood cells (from healthy donors) and BxPC-3 tumor cells (Procell, Wuhan, China) were used as target cells. […] The cells were washed at least twice with PBS and analyzed with flow cytometry after incubation.

[1] = test system: red blood cells (from healthy donors); test: FACS selective binding assay, red blood cells; format: cell-based; details: 30 min at 4° C.
Experimental: as §1

Hu5F9-G4: anti-CD47 antibody, expressed and prepared in house [reference compound]
binding to target cells (BxPC-3 tumor cells): specifically bind
binding to target cells [1]: binds with high affinity
